Data taken from patent EP0486809A2, “Use of suramin against TNF-related diseases” (priority 1990, dated 1992).

Tests used:
human TNFa [1] = target: T1, human TNFa (Homo sapiens, UniProt P01375); assay: Inhibition by suramin of the cytotoxic activity of TNFa on actinomycin D-treated LM cells (MTT); assay type: cell-based; conditions: mouse LM cells treated with actinomycin D, measured the day after; Figure 5
Experimental: In the experiment depicted in Figure 5 different concentrations of human TNFa (Esquire) were incubated, in the absence or presence of different doses of suramin, with mouse LM cells treated with actinomycin D. Treatment with actinomycin D is known to render LM cells more sensitive to the cytotoxic activity of TNFa (Ruff, M.R. and Gifford, G.E., J. lmmunol. 125: 1671 (1980)). The cytotoxic activity of human TNFa was measured the day after.
Inhibition by suramin of the cytotoxic activity of TNF a on actinomycin D - treated LM cells.
The experimental design is similar to that for the assay on untreated LM cells.
The differences are as follows. • 1) 100 µl of a cell-suspension containing 3 x 10^5 cells/ml are added to each well of microtiter plates. • 2) Before setting up the TNFa-cytotoxicity assay, the cells are pretreated for 4 hours at 37 °C with complete MEM (100 µl/well) containing 2 µg/ml actinomycin D (Fluka). • 3) The cytotoxic activity of human TNF a is measured after an incubation period of 24 hours at 37 ° C.

human TNFa [2] = target: T1, human TNFa; assay: Inhibition by suramin of the binding of iodinated human TNFa to LM cells; set-up: purchased New England Nuclear (NEN), Wilmington, DE; conditions: binding of 3 x 10^-10M human TNFa to mouse LM cells; Figure 2
Experimental: The mixtures were then added to mouse LM cells. The residual binding of TNFa was measured and compared to the binding to LM cells in the absence or presence of a 100-fold higher dose of "cold" unlabeled human TNFa. […] For the binding assay, 24-well plates (Costar, Vis- mara Associate, Trezzano sul Naviglio, Italy) are used, that have been seeded the day before with mouse LM cells (Rubin, B.Y. et al. J. Exp. Med. 162: 1099 (1985)), 200.000 cells/well. The medium is discarded and replaced with 100 µl BM supplemented with 0.04% Na N3, 50 µl iodinated human TNF a and 50 µl BM or 50 µl cold TNF a or 50 µl of each suramin dilution. After 4 hours at 4°C cells are washed 4 x with BM, solubilized with 2% SDS and cell-associated radioactivity is determined. Data are processed as described before.

human TNFa [3] = target: T1, human TNFa; assay: Inhibition by suramin of the cytotoxic activity of TNFa on untreated mouse LM cells (MTT); assay type: cell-based; conditions: measured after 2 days, Figure 6
Experimental: The experiments depicted in Figure 6 were similar to the experiments of Figure 5, except that actinomycin D was omitted from the incubation mixture. In this case the cytotoxic activity of human TNFa was measured after 2 days. […] The degree of inhibition was dependent on the activity of human TNFa employed, i.e. doses of human TNFa exerting high cytotoxic activity were less inhibitable than those exerting lower cytotoxic activity.
3) Inhibition by suramin of the cytotoxic activity of TNF a on untreated mouse LM cells.
On day O logarithmically growing mouse LM cells (Rubin, B.Y. et al. J. Exp. Med. 162 : 1099 (1985)) are trypsinized, centrifuged and resuspended at a final concentration of 5 x 10^4 cells/ml of Eagle's minimun essential medium supplemented with 5% FCS and 1% glutamine (complete MEM). […]
The plates are further incubated for 4 hours at 37 °C. Then, supernatants are discarded, 200 µl of dimethylsulfoxide (DMSO, Farmitalia Carlo Erba) are added to each well and the extent of color development is read on a plate ELISA reader at 570 nm. OD values obtained for each TNF a concentration and each TNFa-suramin mixture are expressed as percent (%) of those obtained for the controll wells containing only complete MEM and complete MEM plus each suramin dilution, respectively.

human TNFa [4] = target: T1, human TNFa; assay: Inhibition by suramin of the binding of iodinated human TNFa to K562 cells; set-up: purchased New England Nuclear (NEN), Wilmington, DE; conditions: for IC50: Figure 1, read-out: Inhibitory concentrations 50 (IC50)
Experimental: In the experiment depicted in Figure 1 suramin was mixed, at the indicated doses, with 2.5 x 10^-11M, 10^-10M, or 4 x 10^-10M iodinated human TNFa - (New England Nuclear, NEN, Wilmington, DE). The mixtures were then added immediately to K562 cells. The residual binding of TNF a was measured and compared to the binding to K562 cells in the absence or presence of a 100-fold higher dose of "cold" unlabeled human TNFa (Esquire Chemie AG, Zuerich, Switzerland). […] Higher doses of suramin are required to inhibit the binding of higher doses of iodinated TNFa. […]
1) Inhibition by suramin of the binding of iodinated human TNF a to K562 cells.
lodinated human TNFa (NEN, specific activity = 30 - 70 µCi/µg protein) is diluted so to have concentrations of 1.6 x 10-^9 M, 4 x 10^-10M and 10^-10M in RPMI 1640 medium (Flow, Opera, Italy) supplemented with 2% foetal calf serum (FCS, PBI, Milan, Italy) and 14 mM Hepes (Flow). This medium will hereon be referred to as binding medium (BM). "Cold" unlabeled human TNF a (Esquire) is diluted in BM so to have concentrations of 1.6 x 10^-7M, 4 x 10-^8 M and 10^-8M. Suramin (Bayer, Leverkusen, FRG) is dissolved in BM so to have a concentration of 4 mM. Starting from this solution a series of dilutions are set up in BM.
K562 cells (human chronic myelogenous leukemia, ATCC CCL243) are adjusted to a concentration of 2 x 10^6/ml in BM. 100 µl of the cell suspension are then incubated with 50 µl of each iodinated TNFa concentration and with 50 µl BM or 50 µl of a 100 fold higher concentration of "cold" TNF a or 50 µl of each suramin dilution. The mixtures are incubated for 4 hours at […]. Thereafter the cells are centrifuged through a phthalate-dibutyl phthalate oil mixture (1:1,5 vol/vol, Fluka AG, Buchs, Switzerland). Cell-associated radioactivity is determined in a gamma-counter. Data thus obtained are processed by means of an equilibrium binding data analysis program (EBDA, Elsevir Science Publishers, Amsterdam, Netherlands). […]

T1 sequence (P01375 77-233 limits assumed): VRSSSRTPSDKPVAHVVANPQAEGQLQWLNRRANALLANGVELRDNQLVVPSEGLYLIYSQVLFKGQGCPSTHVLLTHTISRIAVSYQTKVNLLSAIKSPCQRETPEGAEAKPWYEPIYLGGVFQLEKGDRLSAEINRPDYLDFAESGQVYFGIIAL

## Cc1ccc(C(=O)Nc2ccc(S(=O)(=O)O)c3cc(S(=O)(=O)O)cc(S(=O)(=O)O)c23)cc1NC(=O)c1cccc(NC(=O)Nc2cccc(C(=O)Nc3cc(C(=O)Nc4ccc(S(=O)(=O)O)c5cc(S(=O)(=O)O)cc(S(=O)(=O)O)c45)ccc3C)c2)c1 [suramin, 8,8' - (carbonylbis(imino-3,1-phenylenecarbonylimino (4-methyl-3,1-phenylene)carbonylimino)) bis-1,3 ,5-naphthalenetrisulfonic acid]
Human TNFa [1]
  inhibition of the cytotoxic activity of human TNFa: inhibited, in a dose- dependent manner
Human TNFa [2]
  IC50: 175 µM
Human TNFa [3]
  inhibition of the cytotoxic activity of human TNFa: inhibited, in a dose- dependent manner
Human TNFa [4]; binding of 2.5 x 10-"M human TNFa to human K562 cells
  IC50: 78 µM
Human TNFa [4]; binding of 4 x 10-'°M human TNFa to human K562 cells
  IC50: 180 µM
Human TNFa [4]; binding of 10^-10M human TNFa to human K562 cells
  IC50: 126 µM
Human TNFa [4]; sequential addition of suramin and 10^-10M TNFa, K562 cells washed in between, Figure 4
  inhibition of the binding of TNFa to K562: no inhibition
